Publication PMC5380659, “Unique charge-dependent constraint on collagen recognition by integrin α10β1” (Matrix Biology, 2017)
“Also recorded” adds a separate entry of the source.

Assays:
[1] = test system: human recombinant GST-α10 I domain; assay: Solid-phase binding assay (SPBA) of wild-type α10 I domain; conditions: short THPs, 2 mM Mg^2 +, 1 h, Fig. 4A
Experimental: The α10 I domain was applied to the collagen II and III Toolkits in the presence or absence of Mg^2 +, and was detected using anti-GST, as described in Experimental: data are shown in Fig. 1. The background response is indicated by wells coated with the control peptide, GPP10 (corresponding to the host sequence), or BSA.
(§1) I domain adhesion was determined colorimetrically, as described, here termed solid phase binding assay (SPBA). Peptides were coated at 10 μg/ml for 1 h at 22 °C on Immulon-2 HB 96-well plates (Thermo Life Sciences, Basingstoke, UK), and blocked for 1 h with 200 μl of TBS containing 50 mg/ml bovine serum albumin. Wells were washed four times with 200 μl of the adhesion buffer (TBS with 1 mg/ml bovine serum albumin) before adding 100 μl of adhesion buffer containing 10 μg/ml of recombinant GST I domains in the presence of either 2 mM MgCl2 or EDTA for 1 h at room temperature. Wells were washed five times with 200 μl of adhesion buffer containing MgCl2 or EDTA, before adding 100 μl of adhesion buffer containing the anti-GST-HRP conjugate at 1:10,000 dilution for 1 h at room temperature. After washing, colour was developed using an ImmunoPure TMB Substrate Kit (Pierce) according to the manufacturer's instructions.

C2C12-α10β1 cells [2] = assay: LDH-based SPBA of C2C12-α10β1 cell adhesion; parameters: species or system mouse; conditions: short THPs, 2 mM Mg^2 +, 1 h, Fig. 4B
Experimental: The mouse myoblast cell line, C2C12-α10β1 clone, expresses α10β1 as its sole collagen-binding integrin [16]. To investigate the binding of α10β1 to collagen in a cellular and whole integrin context, therefore, the adhesion of C2C12-α10β1 cells to Toolkits II and III was performed using two different approaches. First, SPBA was used, with lactate dehydrogenase to report the presence of adherent cells, after lysis, as described in Experimental. […] C2C12-α10B1 cells generally bound more prominently to those weaker peptides that supported just-observable binding of free I-domain. This may reflect avidity of the receptor-populated cell surface for the peptide-coated wells, or perhaps up-regulation of integrin affinity following receptor engagement. It is also possible that some cell binding reflects specific indirect interactions. For example, fibronectin, available either by intrinsic expression or from the serum supplement, binds well to II-44, and can also bind integrin αVβ3 [21].
Fig. 2 Binding of α10β1-transfected C2C12 cells to Collagen Toolkits. 96-well plates were coated with peptides as for Fig. 1, then C2C12-α10β1 cells (5 × 10^4 per well) were added and incubated for 1 h in the presence of either 2 mM MgCl2 or 2 mM EDTA as above. A: binding to Toolkit II. B: binding to Toolkit III.
(§2) The mouse myoblast cell line, C2C12, (control and transfectants, C2C12-α1β1, C2C12-α2β1, C2C12-α10β1 or C2C12-α11β1) was maintained in RPMI medium containing 10% fetal bovine serum, 2 mM glutamine, 100 IU/ml penicillin, 100 μg/ml streptomycin, and 2.5 μg/ml amphotericin. Cells were harvested by centrifugation, washed, and suspended at 0.5 × 10^6/ml in Tris-buffered saline supplemented with 5.5 mM glucose and either 2 mM EDTA or 2 mM MgCl2. SPBA was performed as follows: 100 μl of the cell suspension was added to peptide-coated wells [42] at 20 °C for 60 min. Cell adhesion was determined colorimetrically after lysis, using a lactate dehydrogenase (LDH)-based cell detection kit (Roche Diagnostics) according to the supplier's instructions.

α10β1 [3] = assay: Overall recognition by α10β1 (I domain and C2C12-α10β1 cells, summary); conditions: abstract and discussion; I domain and/or C2C12-α10β1 cells
Experimental: as §1, §2
(§3) To quantitate C2C12-α10β1 binding to collagen peptides, we used the impedance-based xCELLigence system (Acea) that allows label-free, dynamic monitoring of cell adhesion in real-time. The assay system expresses the adhesion-dependent rise in well impedance in units of cell index (CI), defined as (Rn − Rb) / 15; where Rn is the electrical impedance of each cell-containing well and Rb is the background impedance of the well with medium alone

[4] = test system: collagen-binding integrins; parameters: method as in 3 sources, ref [7], [8] = [7]; PMID 10778855; doi:10.1016/S0092-8674(00)80622-4; 7 Emsley J. Knight C.G. Farndale R.W. Barnes M.J. Liddington R.C. Structural basis of collagen recognition by integrin alpha2beta1 Cell 101 1 2000 47 56 10778855 10.1016/S0092-8674(00)80622-4 || [8]; PMID 16326707; doi:10.1074/jbc.M509818200; 8 Raynal N. Hamaia S.W. Siljander P.R. Maddox B. Peachey A.R. Fernandez R. Foley L.J. Slatter D.A. Jarvis G.E. Farndale R.W. Use of synthetic peptides to locate novel integrin alpha2beta1-binding moti ||| ref [8], [10] = [8]; PMID 16326707; doi:10.1074/jbc.M509818200; 8 Raynal N. Hamaia S.W. Siljander P.R. Maddox B. Peachey A.R. Fernandez R. Foley L.J. Slatter D.A. Jarvis G.E. Farndale R.W. Use of synthetic peptides to locate novel integrin alpha2beta1-binding moti || [10]; PMID 16043429; doi:10.1074/jbc.M502431200; 10 Kim J.K. Xu Y. Xu X. Keene D.R. Gurusiddappa S. Liang X. Wary K.K. Hook M. A novel binding site in collagen type III for the integrins, alpha 1beta 1 and alpha 2beta 1 J. Biol. Chem. 280 2005 32512 ||| ref [11] = [11]; PMID 10986291; doi:10.1074/jbc.M007668200; 11 Xu Y. Gurusiddappa S. Rich R.L. Owens R.T. Keene D.R. Mayne R. Hook A. Hook M. Multiple binding sites in collagen type I for the integrins α1β1 and α2β1 J. Biol. Chem. 275 2000 38981 38989 10986291; conditions: ref [11]; cited from earlier work
Excerpt: Many related motifs have now been identified using the Collagen Toolkits developed in this laboratory for the purpose. These are libraries of overlapping peptides of 27 amino acids of collagen primary sequence (guest sequence), flanked ...

α10β1 [5] = test system: α10β1; parameters: method as in not given; conditions: ref not given; cited from earlier work
Excerpt: In the setting of cartilage, collagen III, although enriched in the pericellular environment, is much less abundant than collagen II [22], and its expression increases with age or with th ...

C2C12-α10β1 cells [6] = assay: xCELLigence real-time adhesion of C2C12-α10β1 cells; assay type: cell-based, mouse; conditions: 2.5 × 10^4 cells/well, 2 mM Mg^2 +, over 1 h, Fig. 3A
Experimental: Fig. 3 Binding of α10β1-transfected C2C12 cells to collagens and selected Toolkit peptides. Peptides or collagens were coated on ePlates as described, then cells were added in the presence of 2 mM Mg^2 + or EDTA, and Cell Index value was collected over 1 h. […] B: time courses are shown of adhesion to selected Toolkit peptides or GPP-10.
as §3
Briefly, C2C12 cells were seeded at 2.5 × 10^4 cells/well in an E-plate (Roche Applied Science) pre-coated with peptides as for SPBA, and CI was measured for up to 2 h.

integrin α1β1 = test system: integrin α1β1; parameters: method as in 3 sources, ref [4]; PMID 19693543; doi:10.1007/s00441-009-0834-6; 4 Barczyk M. Carracedo S. Gullberg D. Integrins Cell Tissue Res. 339 1 2010 269 280 19693543 10.1007/s00441-009-0834-6 PMC2784866 ||| ref [12] = [12]; PMID 22654115; doi:10.1074/jbc.M112.353144; 12 Hamaia S.W. Pugh N. Raynal N. Nemoz B. Stone R. Gullberg D. Bihan D. Farndale R.W. Mapping of potent and specific binding motifs, GLOGEN and GVOGEA, for integrin alpha1beta1 using collagen toolkits ||| ref not given; conditions: ref [4]; cited from earlier work
Excerpt: The collagen-binding integrin family is complete, with four established members, α1β1, α2β1, α10β1 and α11β1. These are highly-conserved, heterodimeric receptors with an important structural feature in common, the presence of an I (inserted) domain which contains the metal ion-dependent adhesion site (MIDAS). The MIDAS is a constellation of electronegative residues at the distal surface of this 200-residue domain that, in the resting, non-ligated state, can co-ordinate a Mg^2 + ion. […] Many related motifs have now been identified using the Collagen Toolkits developed in this laboratory for the purpose. These are libraries of overlapping peptides of 27 amino acids of collagen primary sequence (guest sequence), flanked ... || Why would collagen II differ in this respect?

Substance | Binding of α10 I domain to short triple-helical peptides [1] | Adhesion of C2C12-α10β1 cells to short triple-helical peptides (C2C12-α10β1 cells [2]) | Recognition by α10β1, summary (α10β1 [3]) | Ligand of collagen-binding integrins, weak motifs [4] | Reported binding of α10β1 to collagens (α10β1 [5]) | Cell adhesion to collagens (Cell Index, endpoint) (C2C12-α10β1 cells [6]) | Preferred ligand of α1β1 (integrin α1β1)
GLOGER [short triple-helical peptide containing GLOGER] | less well | bound strongly | binds α10β1 better than GFOGER, second only to GLOGEN; also recorded: α10β1-positive |  |  |  | 
GLSGER [short triple-helical peptide containing GLSGER] |  | bound strongly | α10β1-positive | weak ligands |  |  | 
collagen II: intact collagen II |  |  |  |  | binds | bound quite well | 
collagen IV: intact collagen IV |  |  |  |  | better ligand | better | preferred ligand
